Assay [1] deals with non-transfected HEK293 cells. Briefly: Forskolin-stimulated cAMP formation in non-transfected HEK293 cells (control). The assay is classed as cell-based. Particulars: untransfected HEK293 cells. As for the experimental part:
• Figure 1 a depicts the expression of the recombinant GABABR1a receptor in COS1 cells. […]. Autoradiography of a 6% SDS gel with 25µg protein loaded per lane is shown. […]. The apparent molecular weight of native and recombinant GABAB receptors are estimated from gel mobilities relative to those of SDS-PAGE standards (BioRad). […]. Cell membranes of the tissues indicated are photoaffinity-labelled with [[…] and subjected to SDS-PAGE and autoradiography. a, b, Selectivity of the photoaffinity ligand [[…]. a, Differential distribution of GABAB receptor variants of 130K and 100K in tissues of the nervous system. […]. Incubation of membrane extracts with the photoaffinity ligand is carried out in the presence of competitor substances at the concentrations indicated, c, GABAB receptors are N-glycosylated. Photoaffinity-labelled rat cortex cell membranes are incubated with 0.4 units N-glycosidase F or 0.6 milliunits O-glycosidase (Boehringer Mannheim). d, Photolabelling of GABAB receptors from different species. […]
GABAB receptors are described to inhibit adenylate cyclase activity, stimulate phospholipase A2, activate K^+-channels, inactivate voltage-dependent Ca^2+-channels and to modulate inositol phospholipid hydrolysis. […] The ability of GABABR1a stably expressed in HEK293 cells to reduce forskolin-stimulated CAMP accumulation is analysed (Fig. 5). […]
For orientation: cAMP levels reflect the balance of adenylyl cyclase and phosphodiesterase activity.

For assay [2], the system named is rat cortical slice preparations. The following applies: cited from earlier work.
Assay [3] deals with recombinant GABABR1a receptors. The following applies: read-out: COS 1 cells IC50, inhibition of [125I]CGP 64213 binding.
Description: In order to isolate membranes containing the cloned GABAB receptor, culture dishes containing GABAB receptor-expressing COS cells are washed twice with Krebs-Henseleit-Tris buffer. Afterwards the cells are scraped off the dishes, homogenised in a glass-glass homogeniser and centrifuged for 30 min at 4°C at 40'000 g. The homogenisation and centrifugation step is repeated once. The pellet is resuspended in buffer and stored in liquid nitrogen until further analysis.
The next assay deals with GABAB receptors. Particulars: inhibition of [125I]CGP 64213 binding, native receptors; read-out: Rat cerebral cortex IC50.
For another assay, the system named is native GABAB receptors. Briefly: Photoaffinity labelling of membranes with [125I]CGP 71872 in the presence of competitor substances. The class given is binding, rat. As for the experimental part:
The incubation is terminated by centrifugation at 20 000 x g for 10 min at 4°C. This step removed free unbound photoaffinity label. […] The suspension is centrifuged at 20 000 x g for 10 min and resuspended at a concentration of 8mg/ml protein in buffer. […] The labelled membranes could be stored at -80°C.
Furthermore, native GABAB receptors are photoaffinity-labelled in the presence of various competitor substances indicated in Figure 4b.

Another assay addresses T1, GABABR1a (Rattus norvegicus, UniProt Q9Z0U4).
T1 construct: either the full-length cDNA clones disclosed herein or fragments thereof can be used as probes; expressed in transfected cells
Description: Forskolin-stimulated cAMP accumulation in HEK293 cells stably expressing GABABR1a. The class given is cell-based. Particulars: 10 µM antagonist, 300 µM L-baclofen. The text has this:
GABAB receptors are described to inhibit adenylate cyclase activity, stimulate phospholipase A2, activate K^+-channels, inactivate voltage-dependent Ca^2+-channels and to modulate inositol phospholipid hydrolysis. As GABABR1a and -b have identical sequence in all domains predicted to be intracellular they are expected to be able to couple to the same effector systems. […] We chose concentrations of forskolin and L-baclofen that should produce a maximal effect.

pIC50: −log10 of the molar value. Entries after “also recorded” stand apart in the source; their conditions may differ. Where two headings read alike, the source gives them in different places.

T1 sequence (Q9Z0U4 20-960): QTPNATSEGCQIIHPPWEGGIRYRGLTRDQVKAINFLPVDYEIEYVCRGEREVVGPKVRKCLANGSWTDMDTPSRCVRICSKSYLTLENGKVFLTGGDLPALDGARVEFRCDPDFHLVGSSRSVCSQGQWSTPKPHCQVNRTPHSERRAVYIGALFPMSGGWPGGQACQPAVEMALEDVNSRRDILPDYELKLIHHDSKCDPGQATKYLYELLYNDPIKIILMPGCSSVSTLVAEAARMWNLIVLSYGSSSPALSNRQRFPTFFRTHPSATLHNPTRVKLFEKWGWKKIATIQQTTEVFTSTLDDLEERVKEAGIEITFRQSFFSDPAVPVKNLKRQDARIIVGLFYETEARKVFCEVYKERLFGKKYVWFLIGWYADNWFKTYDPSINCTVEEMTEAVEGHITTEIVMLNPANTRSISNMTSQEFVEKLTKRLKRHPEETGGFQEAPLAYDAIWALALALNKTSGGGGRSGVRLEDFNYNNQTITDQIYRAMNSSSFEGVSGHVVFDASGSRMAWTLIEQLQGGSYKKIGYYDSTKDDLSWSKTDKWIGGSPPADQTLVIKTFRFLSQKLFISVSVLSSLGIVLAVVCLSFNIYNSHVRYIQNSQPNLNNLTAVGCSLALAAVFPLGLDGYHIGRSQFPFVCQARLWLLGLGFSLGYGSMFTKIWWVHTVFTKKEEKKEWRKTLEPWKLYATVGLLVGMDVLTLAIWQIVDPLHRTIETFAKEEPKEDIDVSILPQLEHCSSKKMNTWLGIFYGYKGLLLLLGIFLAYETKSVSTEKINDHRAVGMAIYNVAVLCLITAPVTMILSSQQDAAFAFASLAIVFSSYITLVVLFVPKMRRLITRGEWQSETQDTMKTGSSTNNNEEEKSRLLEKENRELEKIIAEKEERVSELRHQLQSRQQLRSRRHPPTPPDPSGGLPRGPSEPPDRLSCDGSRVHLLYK

With `NC[C@H](CC(=O)O)c1ccc(Cl)cc1` [L-baclofen], the “inhibition of forskolin-stimulated cAMP formation” value in assay [1] is “No L-baclofen response; also recorded: does not inhibit”. In addition, the “reduction of forskolin-stimulated cAMP accumulation” value in assay [2] is “about 40%”.
Take `NCCCP(=O)(O)C(F)F` [CGP 47656]: the pIC50 in assay [3] is 4.91; at GABAB receptors, 6.55.
In the case of `C[C@H](NC[C@H](O)CP(=O)(O)CC1CCCCC1)c1ccc(Cl)c(Cl)c1` [CGP 54626A], the “[125I]CGP 71872 labelling in the presence of excess unlabelled antagonist” value with native GABAB receptors was “no radioactivity is bound to the membranes”; in the assay on native GABAB receptors (listed as CGP54626A), “inhibited”. Further, at GABABR1a, the “effect on the L-baclofen inhibition of forskolin-stimulated cAMP accumulation” value is recorded as “antagonised”.

For orientation: pIC50 means the IC50 on a negative log10 scale, so that one unit is a factor of ten.

Values taken from patent EP0907731B1, “METABOTROPIC GABA(B) RECEPTORS, RECEPTOR-SPECIFIC LIGANDS AND THEIR USES” (Novartis AG, priority 1996, dated 1997).
